Experimental data reported in ChEMBL document CHEMBL1129276, “Synthesis of 2'-aminomethyl derivatives of N-(2-(phosphonomethoxy)ethyl) nucleotide analogues as potential antiviral agents” (1996).
Values after ≈ are worked out from the molar mass of the structure shown.

What was measured:
Type in all cases: functional
MT4 [1] = experiment: Compound was tested in vitro for Minimum inhibitory concentration required to reduce HSV-1 TK-(B2006) induced cytopathicity in Human MT-4 cells
MT4 [2] = experiment: Compound was tested in vitro for Minimum inhibitory concentration required to reduce VZV TK+(YS) induced cytopathicity in Human MT-4 cells
MT4 [3] = experiment: Compound was tested in vitro for Minimum inhibitory concentration required to reduce CMV(Davis) induced cytopathicity in Human MT-4 cells
MT4 [4] = experiment: Minimum inhibitory concentration required to reduce VZV TK-(07-1) induced cytopathicity in Human MT-4 cells
MT4 [5] = experiment: Compound was tested in vitro for Minimum inhibitory concentration required to reduce VZV TK-(YS/R) induced cytopathicity in Human MT-4 cells
MT4 [6] = experiment: Compound was tested in vitro for Minimum inhibitory concentration required to reduce HSV-2(ROD) induced cytopathicity in Human MT-4 cells
MT4 [7] = experiment: Compound was tested in vitro for Minimum inhibitory concentration required to reduce CMV(AD-169) induced cytopathicity in Human MT-4 cells
MT4 [8] = experiment: Compound was tested in vitro for Minimum inhibitory concentration required to reduce HSV-1(IIIb) induced cytopathicity in Human MT-4 cells
MT4 [9] = experiment: Compound was tested in vitro for Minimum inhibitory concentration required to reduce VZV TK+(OKA) induced cytopathicity in Human MT-4 cells
MT4 [10] = experiment: Compound was tested in vitro for minimum inhibitory concentration required to reduce HSV-1(KOS) induced cytopathicity in Human MT-4 cells
HEL [11] = experiment: Compound was tested in vitro for Minimum inhibitory concentration required to reduce CMV (AD-169) induced cytopathicity in HEL cells; conditions: Homo sapiens
HEL [12] = experiment: Compound was tested in vitro for Minimum inhibitory concentration required to reduce VZV TK+(YS) induced cytopathicity in HEL cells; conditions: Homo sapiens
HEL [13] = experiment: Compound was tested in vitro for Minimum inhibitory concentration required to reduce VZV TK+(OKA) induced cytopathicity in HEL cells; conditions: Homo sapiens
HEL [14] = experiment: Compound was tested in vitro for Minimum inhibitory concentration required to reduce VZV TK-(07-1) induced cytopathicity in HEL cells; conditions: Homo sapiens
HEL [15] = experiment: Compound was tested in vitro for Minimum inhibitory concentration required to reduce CMV(AD-169) induced cytopathicity in HEL cells; conditions: Homo sapiens
HEL [16] = experiment: Compound was tested in vitro for Minimum inhibitory concentration required to reduce CMV(Davis) induced cytopathicity in HEL cells; conditions: Homo sapiens
HEL [17] = experiment: Compound was tested in vitro for Minimum inhibitory concentration required to reduce VZV TK-(YS/R) induced cytopathicity in HEL cells; conditions: Homo sapiens
HEL [18] = experiment: Minimum inhibitory concentration required to reduce VZV TK-(07-1) induced cytopathicity in HEL cells; conditions: Homo sapiens
E6SM = experiment: Compound was tested in vitro for minimum inhibitory concentration required to reduce HSV-1(KOS) induced cytopathicity in E6SM cells; conditions: Homo sapiens
C3H/3T3 = experiment: Compound was tested in vitro for Minimum inhibitory concentration required to reduce MSV induced cytopathicity in murine C3H/3T3 embryo fibroblasts; conditions: Mus musculus

## Nc1ncnc2c1ncn2C[C@@H](CO)OCP(=O)(O)O
MT4 [1]
  MIC: 0.1 µg/mL (≈ 0.33 µM)
MT4 [2]
  MIC: 0.05 µg/mL (≈ 0.165 µM)
MT4 [3]
  MIC: 0.2 µg/mL (≈ 0.66 µM)
MT4 [4]
  MIC: 0.04 µg/mL (≈ 0.132 µM)
MT4 [5]
  MIC: 0.01 µg/mL (≈ 0.033 µM)
MT4 [6]
  MIC: > 20 µg/mL
MT4 [7]
  MIC: 0.15 µg/mL (≈ 0.495 µM)
MT4 [8]
  MIC: > 20 µg/mL
MT4 [9]
  MIC: 0.03 µg/mL (≈ 0.0989 µM)
MT4 [10]
  MIC: 0.2 µg/mL (≈ 0.66 µM)

## C[N+](C)(C)CC(Cn1cnc2c(N)nc(N)nc21)OCP(=O)(O)O (stereo unspecified)
HEL [11]
  MIC: > 50000 µg/mL
HEL [12]
  MIC: > 50000 µg/mL

## C[N+](C)(C)CC(Cn1cnc2c(N)ncnc21)OCP(=O)(O)O (stereo unspecified)
HEL [13]
  MIC: > 50000 µg/mL
HEL [14]
  MIC: > 50000 µg/mL
HEL [15]
  MIC: > 50000 µg/mL
HEL [16]
  MIC: > 50000 µg/mL
HEL [12]
  MIC: > 50000 µg/mL

## Nc1nc(N)c2ncn(CC(CNC(=O)c3ccccc3C(=O)O)OCP(=O)(O)O)c2n1 (stereo unspecified)
HEL [13]
  MIC: > 50000 µg/mL
HEL [17]
  MIC: > 50000 µg/mL
HEL [15]
  MIC: > 50000 µg/mL
HEL [16]
  MIC: > 50000 µg/mL
HEL [18]
  MIC: > 50000 µg/mL
HEL [12]
  MIC: > 50000 µg/mL

## Nc1ncnc2c1ncn2CC(CN1CCOCC1)OCP(=O)(O)O (stereo unspecified)
HEL [13]
  MIC: > 50000 µg/mL
HEL [17]
  MIC: > 50000 µg/mL
E6SM
  MIC: 70000 µg/mL (≈ 188000 µM)
HEL [15]
  MIC: > 50000 µg/mL
HEL [16]
  MIC: > 50000 µg/mL
HEL [18]
  MIC: > 50000 µg/mL
HEL [12]
  MIC: > 50000 µg/mL
C3H/3T3
  MIC: 25000 µg/mL (≈ 67100 µM)

## C[N+](C)(C)CC(Cn1cnc2c(O)nc(N)nc21)OCP(=O)(O)O (stereo unspecified)
HEL [13]
  MIC: > 50000 µg/mL
HEL [15]
  MIC: > 50000 µg/mL
HEL [12]
  MIC: > 50000 µg/mL

## Nc1ncnc2c1ncn2CCOCP(=O)(O)O [ADEFOVIR]
MT4 [1]
  MIC: 20 µg/mL (≈ 73.2 µM)
MT4 [2]
  MIC: 31 µg/mL (≈ 113 µM)
MT4 [3]
  MIC: 29 µg/mL (≈ 106 µM)
MT4 [4]
  MIC: 14 µg/mL (≈ 51.2 µM)
MT4 [5]
  MIC: 14 µg/mL (≈ 51.2 µM)
MT4 [6]
  MIC: 1.5 µg/mL (≈ 5.49 µM)
MT4 [7]
  MIC: 28 µg/mL (≈ 102 µM)
MT4 [8]
  MIC: 1.5 µg/mL (≈ 5.49 µM)
MT4 [9]
  MIC: 25 µg/mL (≈ 91.5 µM)
MT4 [10]
  MIC: 7 µg/mL (≈ 25.6 µM)

## NCC(Cn1cnc2c(N)ncnc21)OCP(=O)(O)O (stereo unspecified)
MT4 [2]
  MIC: 7 µg/mL (≈ 23.2 µM)
MT4 [3]
  MIC: 35 µg/mL (≈ 116 µM)
MT4 [5]
  MIC: 7 µg/mL (≈ 23.2 µM)
MT4 [7]
  MIC: 15 µg/mL (≈ 49.6 µM)
MT4 [9]
  MIC: 11 µg/mL (≈ 36.4 µM)

## Nc1ncnc2c1ncn2CC(CNC(=O)c1ccccc1C(=O)O)OCP(=O)(O)O (stereo unspecified)
HEL [13]
  MIC: > 50000 µg/mL
HEL [17]
  MIC: > 50000 µg/mL
HEL [15]
  MIC: > 50000 µg/mL
HEL [16]
  MIC: > 50000 µg/mL
HEL [18]
  MIC: > 50000 µg/mL
HEL [12]
  MIC: > 50000 µg/mL

## CN(C)CC(Cn1cnc2c(N)ncnc21)OCP(=O)(O)O (stereo unspecified)
HEL [13]
  MIC: > 20000 µg/mL
HEL [17]
  MIC: > 20000 µg/mL
HEL [15]
  MIC: > 20000 µg/mL
HEL [16]
  MIC: > 20000 µg/mL
HEL [18]
  MIC: > 20000 µg/mL
HEL [12]
  MIC: > 20000 µg/mL
